Measured values: patent publication US10456434B2, “Extracts obtained from cell line cultures from plants belonging to the Oleaceae family (e.g. Syringa vulgaris), their preparation and use” (CRODA ITALIANA S. P. A., priority 2005, dated 2019)
Values after ≈ are worked out from the molar mass of the structure shown.

Columns and labels:
[1] = system: platelets; assay: ADP induced platelet aggregation in platelet rich plasma; format: cell-based, rabbit; conditions: 1.0 mg/ml
Method: (§1) Platelet enriched rabbit plasma has been used to assess the platelet anti-aggregating and disaggregating properties of Syringa vulgaris Extract 1, verbascoside and isoverbascoside. Platelet rich plasma has been obtained from rabbit venous blood by mixing it with a 3.8% sodium citrate solution (9:1 v/v). The solution has then been centrifuged at 460×g for 20 minutes. The supernatant has been collected and immediately used for the aggregation assays. Platelet aggregation has been recorded using a Chronolog “Ionised calcium platelet aggregometer” (Chrono-log Co., USA). All measurements have been performed at 37° C. with continuous stirring. […] Then 10 μl of a solution of ADP (final concentration—10 μm) has been added and the luminous transmittance continuously recorded. The results are expressed as the DÒ/DÒÊ ratio, where DÒÊ and DÒ are the luminous transmittance values, in the absence and presence of extract respectively. Platelet disaggregation (the disappearance of pre formed aggregates) has been determined using the same luminous transmittance curve 10 minutes following the addition of ADP. The results are expressed as the DR/DRk ratio, where DRk and DR, are the luminous transmittance in the absence and presence of extract. […]

[2] = system: Trycophyton rubrum ATCC 28188; assay: Multiple dilution antimycotic assay, Trycophyton rubrum; format: cell-based; conditions: assayed at 0.625-5 mg/ml
Method: (§2) With the aim of identifying any potential antifungal activity in the Syringa vulgaris extracts, microbiological assays have been prepared, generally known as multiple dilution assays. Such assays have been performed using the following fungal strains: Trycophyton rubrum ATCC 28188 and Malassezia furfur ST 8036. Syringa vulgaris Extracts 1 and 2, verbascoside and isoverbascoside have been assayed at concentrations of […], 1.25 mg/ml, 2.5 mg/ml and 5 mg/ml. The fungal strains used for testing have been inoculated into culture-broth (in Tryptone soy broth medium, for Malassezia furfur the culture medium has been supplemented with 2 ml/100 ml of olive oil) containing Syringa vulgaris extracts 1 and 2, verbascoside and isoverbascoside at the concentrations described above. In parallel with these tests, culture broths containing the microbial strain alone have been prepared (controls). The culture-broths have, been incubated at 30° C. for a period of 28 days. Samples of the various culture-broths have been taken at 0, 7, 14, 21 and 28 days, with the aim of counting the number of CFU/ml in relation to the various fungal strains, by plating the cultures on solid medium. A certain number of serial dilutions have been prepared for each sample in order to determine the fungal load of each culture-broth. Each dilution has been assayed in triplicate on solid medium. […]

[3] = system: Malassezia furfur ST 8036; assay: Multiple dilution antimycotic assay, Malassezia furfur; format: cell-based; conditions: assayed at 0.625-5 mg/ml
Method: as §2

[4] = system: white blood cells; assay: PMA-stimulated white blood cell chemiluminescence; format: cell-based; conditions: Homo sapiens; 10^6 WBC, PMA 10 nM; read-out: White blood cell chemiluminescence (IC50 mg/ml)
Method: (§3) Anti-inflammatory activity has been assessed by measuring luminol dependent chemiluminescence generated by free radicals released from whole blood and from white blood cells. The assay has been performed using the following protocol: 10 μl of fresh human blood is mixed with 0.980 ml of Hanks saline solution containing 5×10^−5 M luminol and the test sample (at various concentrations). The chemiluminescent response is recorded continuously for 30 minutes at a temperature of 37° C. The results are expressed as IC50 (mg/ml), i.e. as the minimum sample, concentration inhibiting chemiluminescence by 50% with respect to the control. To isolate white blood cells (WBC) from whole blood one proceeds in the following manner: 1 ml of fresh blood is layered onto a Hipaque gradient (p=1.119) and centrifuged at 250×g for 60 minutes at room temperature. Following centrifugation, the pellet containing the white blood cells is washed twice, using a large volume of cold Hanks saline solution. Finally, the washed WBCs are resuspended in 01 ml di HBSS containing foetal calf serum. 10^6 WBC are added to a chemiluminometer cuvette. 10 μl of PMA (final concentration equal to 10 nM) are added to induce the formation of free radicals. The chemiluminescent response is recorded continuously for 30 minutes at a temperature of 37° C. […]

[5] = system: platelets; assay: Platelet disaggregation 10 minutes after ADP; format: cell-based, rabbit; conditions: 1.0 mg/ml
Method: as §1

[6] = system: whole blood; assay: Whole blood luminol dependent chemiluminescence; format: cell-based; conditions: 0.5 h; fresh human blood, 30 minutes, 37° C.; read-out: Whole blood chemiluminescence (IC 50 mg/ml)
Method: as §3

| Compound | Aggregation (% with respect to control) [1] | antimycotic activity towards Trycophyton rubrum (in words) [2] | antimycotic activity towards Malassezia furfur (in words) [3] | IC50 [4] | Disaggregation (% with respect to control) [5] | IC50 [6] |
| --- | --- | --- | --- | --- | --- | --- |
| CC1OC(OC2C(O)C(COC(=O)C=Cc3ccc(O)c(O)c3)OC(OCCc3ccc(O)c(O)c3)C2O)C(O)C(O)C1O [Isoverbascoside, b-(3,4-dihydroxyphenyl)-ethyl-O-α-L-ramnopyranosyl(1″-3′)-b-D-(6′-O-caffeoil)glucopyranoside] | 25 ± 6 % | activity comparable to Extract 1 | activity comparable to Extract 1 | 0.25 mg/mL (≈ 400 µM) | 75 ± 21% | 1.3 mg/mL (≈ 2080 µM) |
| C[C@@H]1O[C@@H](O[C@@H]2[C@@H](O)[C@H](OCCc3ccc(O)c(O)c3)O[C@H](CO)[C@H]2OC(=O)/C=C/c2ccc(O)c(O)c2)[C@H](O)[C@H](O)[C@H]1O [Verbascoside, b-(3,4-dihydroxyphenyl)-ethyl-O-α-L-ramnopyranosyl (1″-3′)-b-D-(4′-O-caffeoil)-glucopyranoside] | 24 ± 6 % | activity comparable to Extract 1 | activity comparable to Extract 1 | 0.23 mg/mL (≈ 368 µM) | 73 ± 21% | 1.29 mg/mL (≈ 2070 µM) |
